Assay results from patent publication US11260083B2, “Compositions and methods for treating and preventing graft versus host disease” (The Regents of the University of Michigan, priority 2016, dated 2022).

Experiments:
[1] = tested on: GI-barrier; test: FITC-dextran assay (intestinal permeability); type: in vivo, mouse; conditions: 21 days following transplant; butyrate-treated vs vehicle allo-BMT recipients
Description: Food and water was withheld from all mice for four hours on day 21 post bone marrow transplant. FITC-dextran (Sigma-Aldrich; St. Louis, Mo.) was administered by 20G-1.5″ flexible intragastric gavage needle (Braintree Scientific; Braintree, Mass.) at a concentration of 50 mg/ml in PBS. BMT recipients received 800 mg/kg (˜16 mg/mouse). Four hours later, serum was collected from peripheral blood, diluted 1:1 with PBS, and analyzed on a plate reader at excitation/emission wavelength of 485 nm/535 nm. Concentrations of FITCdextran experimental samples were determined based on a standard curve.
Intestinal permeability after allo-BMT was assessed by intragastric administration of FITC-dextran, a non-metabolized carbohydrate (Hanash, A. M. et al. Interleukin-22 protects intestinal stem cells from immune-mediated tissue damage and regulates sensitivity to graft versus host disease. Immunity 37, 339-350 (2012)).

[2] = tested on: donor T cells, Treg cells and macrophages in the intestine; test: Flow cytometry of intestinal cellular contents after allo-BMT; type: in vivo, mouse
Text: To analyze immunophenotype surface markers, lymphocytes contained in the IEC fraction or spleen were harvested, stained using recommended dilutions indicated by manufacturer product sheets and gated on CD4-conjugated PerCP/Cy5.5 (Clone: GK1.5) or CD8-conjugated APC (Clone: 53-6.7) and configurations of the following per mouse in duplicate: CD69-PE (Clone: H1.2F3), CD62L-PE (Clone: MEL-14), CD25-PE (Clone: 3C7), CD44-PerCP/Cy5.5 (Clone: IM7), CD44-APC (Clone: IM7), FoxP3-APC (Clone: FJK-16s). Stained cells were then analyzed with an Accuri C6 Flow Cytometer (BD Biosciences). IECs were stained with CD326-conjugated APC (Clone: G8.8) and DAPI and sorted to >98% purity using a FACSAria III (BD Biosciences) gating on live cells.
The total numbers of CD45.1+ cells recovered from the intestinal lamina propria were not different between vehicle- and butyrate-treated allo-BMT recipients. By contrast, intestinal infiltration of donor CD4+ and CD8+ T cells and activated T cells (CD69+ or CD44hi) was decreased in animals that received local intragastric butyrate administration (FIG. 4a). However, the ratio of donor Treg cells to effector T cells was not different in the intestines of these animals (FIG. 4b). […] However, no difference in the total number of donor macrophages in the intestine of allogenenic recipients that were treated with either vehicle or butyrate was observed (FIG. 4c).

[3] = tested on: primary CD326+ IECs; test: Chromatin immunoprecipitation (acetylated histone-H4) of primary CD326+ IECs; type: cell-based, mouse
Description: Primary CD326+ IECs were seeded on gelatin (Cell Biologics; Chicago, Ill.) coated cell culture dishes (100 mm) overnight followed by treatment with butyrate 1 mM for 24 hours. Cells were harvested and used for ChIP analysis using EZ-Magna ChIP kit from EMD Millipore (Billerica, Mass.) following the manufacturers instructions. Briefly, cells were cross-linked with 1% formaldehyde and extracted chromatin was sonicated using a Bioruptor Pico by Diagenode (Denville, N.J.) to yield DNA fragments predominately in the range of 200-1000 bp. Sonicated lysates were immunoprecipitated (IP) utilizing ChIP grade specific antibodies purchased from EMD Millipore for acetylated histone-H4 and RNA Pol II or IgG control antibody. De-crosslinked DNA was next examined by qPCR using primers targeting the promoter region of the target gene BCL-B (Bcl2110) (Forward: […] (SEQ ID NO:50); Reverse: […] (SEQ ID NO:51)), Slc5a8 (Forward: […] (SEQ ID NO:52); Reverse: […] (SEQ ID NO:53), and JAM (F11r) (Forward: […] (SEQ ID NO:54; Reverse: […] (SEQ ID NO:55)). IP efficiency of all samples was verified by qPCR analysis of the promoter region of Gapdh (Forward: […] (SEQ ID NO:56); Reverse: […] (SEQ ID NO:57)). Data analysis was determined as percent of input utilizing the equations: ΔCt[normalized ChIP]=(Ct[ChIP]−(Ct[Input]−[…])) and % Input=2(−ΔCt [normalized ChIP]).

[4] = tested on: HDAC; test: HDAC enzymatic activity in donor T cells from recipient spleen; type: in vivo, mouse; conditions: butyrate vs vehicle treated allogeneic animals
Description: To further determine whether the salutary effects of local treatment with butyrate on GI GVHD were dependent on donor Treg cells, a BMT was performed utilizing the same HC mismatched BMT model in which C57BL/6J (H-2b) cells are transferred to Balb/c (H-2d) mice. T cell-depleted (TCD) bone marrow was transplanted and purified CD4+CD25− T cells from donors. Vehicle or butyrate was administered to the recipients daily for 1 week, then every other day thereafter as above. […]. J. Exp. Med. 204, 57-63 (2007); Lahl, K. & Sparwasser, T. In vivo depletion of FoxP3+ Tregs using the DEREG mouse model. […]. The Treg depleted T cells were then used as donor cells in the major MHC mismatch model used above. […] To further examine whether the local administration of butyrate impacted donor T cells directly, the HDAC and HAT enzymatic activity was determined in donor T cells harvested from the recipient animals. Both the HDAC activity or HAT activity in the donor T cells harvested from the recipient spleen were similar between butyrate and vehicle treated allogeneic animals.

## CCCC(=O)[O-].[Na+] [butyrate, sodium butyrate]
[1]
  detectable FITC-dextran in the serum: significantly less
[2]; 21 days after allo-BMT
  ratio of donor Treg cells to effector T cells in the intestines: not different
[2]; 21 days after allo-BMT, intragastric butyrate
  intestinal infiltration of donor CD4+ and CD8+ T cells and activated T cells (CD69+ or CD44hi): decreased
[2]; 21 days after allo-BMT, vehicle vs butyrate
  total numbers of CD45.1+ cells recovered from the intestinal lamina propria: not different
[2]; allogeneic recipients, vehicle vs butyrate
  total number of donor macrophages in the intestine: no difference
[3]; IECs (CD326+) treated with butyrate 1 mM 24 hours
  association of acetylated histone H4 in the promoter region of Slc5a8: increased association
[3]; butyrate treated IECs (CD326+)
  acetylation of histone H4 at the promoter region of Bcl2110: associated with the promoter region
  acetylation of histone H4 at the promoter region of F11r: associated with the promoter region
[4]
  HDAC activity in donor T cells: similar
